Test results from patent US20260083865A1, “PROSTATE SPECIFIC MEMBRANE ANTIGEN (PSMA) LIGANDS AND USE THEREOF” (priority 2022, published 2026).
Numbered stars: 1 amine (or outer) side, 2 acyl side, 3 side chain; on linkers, the order of the positions; unused ones are H or OH. Bridge positions count the residues as written; N and C are the ends. Square brackets hold non-standard residues; d marks the D form. Peptide text beside a SMILES is read from it. * marks the point of attachment. ξ: configuration not given here. NH(CH2)5NHDOTA = O=C(O)CN1CCN(CC(=O)O)CCN(CC(=O)NCCCCCN*)CCN(CC(=O)O)CC1; DOTA = O=C(O)CN1CCN(CC(=O)O)CCN(CC(=O)*)CCN(CC(=O)O)CC1; Phe(4-SO3H) = N[C@@H](Cc1ccc(S(=O)(=O)O)cc1)C(=O)O; Trp(6-Cl) = N[C@@H](Cc1c[nH]c2cc(Cl)ccc12)C(=O)O; Tyr(3-I) = N[C@@H](Cc1ccc(O)c(I)c1)C(=O)O; Phe(3-Cl) = N[C@@H](Cc1cccc(Cl)c1)C(=O)O; Phe(4-Cl) = N[C@@H](Cc1ccc(Cl)cc1)C(=O)O; Arg(Me) = CNC(=N)NCCC[C@H](N)C(=O)O; Ethylenediamine = C(CN[*:2])N[*:1]; X1 = O=C(CC1CCN([*:1])CC1)[*:2]; Lys(Me) = CNCCCC[C@H](N)C(=O)O; Tle = CC(C)(C)[C@H](N)C(=O)O; 4Amb = NCc1ccc(C(=O)O)cc1; αMeS = C[C@](N)(CO)C(=O)O; Aib = CC(C)(N)C(=O)O; X8 = O=C(CC1CCNCC1)*; ξP = O=C(O)C1CCCN1

Key:
[1] = molecular target: T1, Fc-fusion protein of human PSMA (hPSMA-Fc) (Homo sapiens, UniProt Q04609); assay: Surface plasmon resonance assay (Biacore T200, single cycle kinetic); format: binding; settings: pKD category for PSMA SPR activity assay, hPSMA-Fc, 25° C.; read-out: pKD CAT (converted)
T1 construct: purchased Acro Biosystems PSA-H5264
Procedure, shortened: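 hPSMA-Fc was captured (~1000 RU) on an Fc-binding-peptide CM5 chip, and compounds were run in single cycle kinetic mode at 25° C in HBST with 0.1% DMSO. Double-blank-corrected sensorgrams were fitted to a 1:1 Langmuir model to give KD, reported as pKD.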

[2] = molecular target: T2, PSMA-expressing C4-2 cells (Homo sapiens, UniProt Q04609); assay: FACS binding assay (competition with 50 nM PSM-0183); settings: pIC50 category of FACS binding, C4-2 cells; read-out: pIC50 [C4-2] CAT (converted)
T2 construct: PSMA-expressing C4-2 cells (ATCC, Cat. No. CRL-3314) were cultured in RPMI-1640; host or cells: C4-2 cells
Procedure, shortened: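 C4-2 cells were incubated 1 h at 4 °C with 50 nM AF488-labelled peptide PSM-0183 plus increasing test compound concentrations, then washed twice in ice-cold buffer. Median fluorescence in the AF488 channel was read by flow cytometry. IC50/pIC50 was derived by 4PL fitting of MFI versus concentration.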

T2 sequence (Q04609 whole entry): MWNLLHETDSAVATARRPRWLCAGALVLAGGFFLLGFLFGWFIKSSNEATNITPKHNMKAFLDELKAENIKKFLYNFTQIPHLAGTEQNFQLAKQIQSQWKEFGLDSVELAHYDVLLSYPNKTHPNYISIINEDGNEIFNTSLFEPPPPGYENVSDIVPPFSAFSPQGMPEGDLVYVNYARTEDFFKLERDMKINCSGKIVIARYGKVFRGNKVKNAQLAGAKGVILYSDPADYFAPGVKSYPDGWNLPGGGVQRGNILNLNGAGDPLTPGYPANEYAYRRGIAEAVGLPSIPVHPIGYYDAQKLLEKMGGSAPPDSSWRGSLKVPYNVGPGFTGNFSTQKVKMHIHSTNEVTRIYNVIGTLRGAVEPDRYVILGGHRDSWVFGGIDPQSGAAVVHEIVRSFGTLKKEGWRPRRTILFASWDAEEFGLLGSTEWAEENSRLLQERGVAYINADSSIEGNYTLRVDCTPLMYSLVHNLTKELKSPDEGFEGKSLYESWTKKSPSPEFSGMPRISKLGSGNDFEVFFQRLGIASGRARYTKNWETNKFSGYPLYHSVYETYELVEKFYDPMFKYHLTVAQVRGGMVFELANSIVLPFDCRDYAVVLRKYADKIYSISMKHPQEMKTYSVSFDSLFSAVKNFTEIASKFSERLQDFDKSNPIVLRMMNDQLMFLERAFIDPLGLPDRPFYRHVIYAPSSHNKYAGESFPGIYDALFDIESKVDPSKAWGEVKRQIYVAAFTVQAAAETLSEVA
T1 sequence (Q04609 44-750 limits assumed): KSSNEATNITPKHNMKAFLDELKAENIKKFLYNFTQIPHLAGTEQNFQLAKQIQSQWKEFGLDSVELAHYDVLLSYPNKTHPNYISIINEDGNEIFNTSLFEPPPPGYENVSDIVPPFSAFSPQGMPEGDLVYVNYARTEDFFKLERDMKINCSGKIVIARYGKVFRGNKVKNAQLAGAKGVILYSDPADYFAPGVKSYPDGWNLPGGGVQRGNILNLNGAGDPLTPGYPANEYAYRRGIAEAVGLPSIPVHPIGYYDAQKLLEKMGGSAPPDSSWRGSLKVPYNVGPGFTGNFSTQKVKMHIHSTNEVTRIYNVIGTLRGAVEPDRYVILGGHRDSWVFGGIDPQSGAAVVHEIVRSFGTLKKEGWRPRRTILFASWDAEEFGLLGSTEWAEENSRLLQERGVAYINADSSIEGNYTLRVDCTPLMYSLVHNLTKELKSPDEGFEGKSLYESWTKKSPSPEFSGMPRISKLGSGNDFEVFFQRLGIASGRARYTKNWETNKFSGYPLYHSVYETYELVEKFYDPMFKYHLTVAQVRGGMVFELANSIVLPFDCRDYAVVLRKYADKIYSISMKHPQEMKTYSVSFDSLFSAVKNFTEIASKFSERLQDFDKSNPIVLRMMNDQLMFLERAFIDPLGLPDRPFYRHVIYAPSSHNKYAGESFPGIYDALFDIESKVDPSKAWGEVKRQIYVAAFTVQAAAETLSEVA

## CC(=O)N[C@H](C(=O)NC(C)(C)C(=O)N[C@@H](Cc1ccccc1)C(=O)N[C@H]1CSSC[C@@H](C(=O)N[C@H](C(=O)N[C@@H](Cc2c[nH]c3ccccc23)C(N)=O)C(C)(C)C)NC(=O)[C@H](CC(N)=O)NC(=O)C(C)(C)NC(=O)[C@H](CCCNC(=N)N)NC(=O)[C@H](CCCCN)NC1=O)[C@@H](C)O [PSM-0376, Ac-Thr-Aib-Phe-[Cys-Lys-Arg-Aib-Asn-Cys]-Tle-Trp-NH2] (Ac-T[Aib]FCKR[Aib]NC[Tle]W-NH2; disulfide 4-9)
[1]
  Kd: < 12.6 nM
[2]
  IC50: < 200 nM

## C[C@@H](O)[C@H](NC(=O)CC1CCNCC1)C(=O)NC(C)(C)C(=O)N[C@@H](Cc1ccccc1)C(=O)N[C@H]1CSSC[C@@H](C(=O)N[C@H](C(=O)N[C@H](C(=O)N2CCC(CC(=O)N[C@H](CCCCNC(=O)CN3CCN(CC(=O)O)CCN(CC(=O)O)CCN(CC(=O)O)CC3)C(N)=O)CC2)[C@@H](C)O)C(C)(C)C)NC(=O)[C@H](CC(N)=O)NC(=O)C(C)(C)NC(=O)[C@H](CCCNC(=N)N)NC(=O)[C@H](CCCCN)NC1=O [PSM-0378, H-Cmp-Thr-Aib-Phe-[Cys-Lys-Arg-Aib-Asn-Cys]-Tle-Thr-Cmp-lys(DOTA)-NH2] (X8-T[Aib]FCKR[Aib]NC[Tle]T[X1][dK](DOTA)-NH2; disulfide 4-9)
[1]
  Kd: < 12.6 nM
[2]
  IC50: < 200 nM

## CC(=O)N1CCC(CC(=O)N[C@H](C(=O)NC(C)(C)C(=O)N[C@@H](Cc2ccc(Cl)cc2)C(=O)N[C@H]2CSSC[C@@H](C(=O)N[C@H](C(=O)NCCNC(=O)CN3CCN(CC(=O)O)CCN(CC(=O)O)CCN(CC(=O)O)CC3)C(C)(C)C)NC(=O)[C@H](CC(N)=O)NC(=O)C(C)(C)NC(=O)[C@H](CCCNC(=N)N)NC(=O)[C@H](CCCCN)NC2=O)[C@@H](C)O)CC1 [PSM-0379, Ac-Cmp-Thr-Aib-Pcf-[Cys-Lys-Arg-Aib-Asn-Cys]-Tle-en-DOTA] (Ac-[X1]T[Aib][Phe(4-Cl)]CKR[Aib]NC[Tle]-{Ethylenediamine-DOTA}; disulfide 5-10)
[1]
  Kd: < 12.6 nM
[2]
  IC50: < 200 nM

## CNCCCC[C@@H]1NC(=O)[C@@H](NC(=O)[C@H](Cc2ccc(Cl)cc2)NC(=O)C(C)(C)NC(=O)[C@@H](NC(=O)CC2CCN(C(=O)CN3CCN(CC(=O)O)CCN(CC(=O)O)CCN(CC(=O)O)CC3)CC2)[C@@H](C)O)CSSC[C@@H](C(=O)N[C@H](C(N)=O)C(C)(C)C)NC(=O)[C@H](CC(N)=O)NC(=O)C(C)(C)NC(=O)[C@H](CCCNC(=N)NC)NC1=O [PSM-0380, DOTA-Cmp-Thr-Aib-Pcf-[Cys-Lys(Me)-Arg(Me)-Aib-Asn-Cys]-Tle-NH2] ({DOTA}-[X1]T[Aib][Phe(4-Cl)]C[Lys(Me)][Arg(Me)][Aib]NC[Tle]-NH2; disulfide 5-10)
[1]
  Kd: < 12.6 nM
[2]
  IC50: < 200 nM

## CC(C)(NC(=O)c1ccc(CNC(=O)CN2CCN(CC(=O)O)CCN(CC(=O)O)CCN(CC(=O)O)CC2)cc1)C(=O)N[C@@H](Cc1ccc(Cl)cc1)C(=O)N[C@H]1CSSC[C@@H](C(=O)N[C@H](C(N)=O)C(C)(C)C)NC(=O)[C@H](CC(N)=O)NC(=O)C(C)(C)NC(=O)[C@H](CCCNC(=N)N)NC(=O)[C@H](CCCCN)NC1=O [PSM-0381, DOTA-Pamb-Aib-Pcf-[Cys-Lys-Arg-Aib-Asn-Cys]-Tle-NH2] ({DOTA-4Amb}-[Aib][Phe(4-Cl)]CKR[Aib]NC[Tle]-NH2; disulfide 3-8)
[1]
  Kd: < 12.6 nM
[2]
  IC50: < 200 nM

## C[C@@H](O)[C@H](NC(=O)[C@@H](NC(=O)[C@@H]1CSSC[C@H](NC(=O)[C@H](Cc2ccc(Cl)cc2)NC(=O)C(C)(C)NC(=O)[C@@H](NC(=O)CC2CCN(C(=O)CN3CCN(CC(=O)O)CCN(CC(=O)O)CCN(CC(=O)O)CC3)CC2)[C@@H](C)O)C(=O)N[C@@H](CCCCN)C(=O)N[C@@H](CCCNC(=N)N)C(=O)N[C@@](C)(CO)C(=O)N[C@@H](CC(N)=O)C(=O)N1)C(C)(C)C)C(N)=O [PSM-0382, DOTA-Cmp-Thr-Aib-Pcf-[Cys-Lys-Arg-Ams-Asn-Cys]-Tle-Thr-NH2] ({DOTA}-[X1]T[Aib][Phe(4-Cl)]CKR[αMeS]NC[Tle]T-NH2; disulfide 5-10)
[1]
  Kd: < 12.6 nM
[2]
  IC50: < 200 nM

## CC(=O)N[C@H](C(=O)NC(C)(C)C(=O)N[C@@H](Cc1cccc(Cl)c1)C(=O)N[C@H]1CSSC[C@@H](C(=O)N[C@H](C(=O)N[C@H](C(=O)N[C@@H](CC(=O)O)C(N)=O)[C@@H](C)O)C(C)(C)C)NC(=O)[C@H](CC(N)=O)NC(=O)C(C)(C)NC(=O)[C@H](CCCNC(=N)N)NC(=O)[C@H](CCCCN)NC1=O)[C@@H](C)O [PSM-0383, Ac-Thr-Aib-Mcf-[Cys-Lys-Arg-Aib-Asn-Cys]-Tle-Thr-Asp-NH2] (Ac-T[Aib][Phe(3-Cl)]CKR[Aib]NC[Tle]TD-NH2; disulfide 4-9)
[1]
  Kd: < 12.6 nM
[2]
  IC50: < 200 nM

## CC(=O)N[C@H](C(=O)NC(C)(C)C(=O)N[C@@H](Cc1ccccc1)C(=O)N[C@H]1CSSC[C@@H](C(=O)N[C@H](C(=O)N[C@H](C(N)=O)[C@@H](C)O)C(C)(C)C)NC(=O)[C@H](CC(N)=O)NC(=O)[C@H](CCCCNC(=O)CN2CCN(CC(=O)O)CCN(CC(=O)O)CCN(CC(=O)O)CC2)NC(=O)[C@H](CCC(N)=O)NC(=O)[C@H](CCCCN)NC1=O)[C@@H](C)O [PSM-0385, Ac-Thr-Aib-Pho-[Cys-Lys-Gln-Lys(DOTA)-Asn-Cys]-Tle-Thr-NH2] (Ac-T[Aib]FCKQK(DOTA)NC[Tle]T-NH2; disulfide 4-9)
[1]
  Kd: 126 to 501 nM
[2]
  IC50: 200 to 1260 nM

## C[C@@H](O)[C@H](NC(=O)[C@@H](NC(=O)[C@@H]1CSSC[C@H](NC(=O)[C@H](Cc2ccc(S(=O)(=O)O)cc2)NC(=O)C(C)(C)NC(=O)[C@@H](NC(=O)CC2CCN(C(=O)CN3CCN(CC(=O)O)CCN(CC(=O)O)CCN(CC(=O)O)CC3)CC2)[C@@H](C)O)C(=O)N[C@@H](CCCCN)C(=O)N[C@@H](CCCNC(=N)N)C(=O)NC(C)(C)C(=O)N[C@@H](CC(N)=O)C(=O)N1)C(C)(C)C)C(N)=O [PSM-0386, DOTA-Cmp-Thr-Aib-Fso-[Cys-Lys-Arg-Aib-Asn-Cys]-Tle-Thr-NH2] ({DOTA}-[X1]T[Aib][Phe(4-SO3H)]CKR[Aib]NC[Tle]T-NH2; disulfide 5-10)
[1]
  Kd: > 501 nM
[2]
  IC50: > 3160 nM

## CNCCCC[C@@H]1NC(=O)[C@@H](NC(=O)[C@H](Cc2ccc(O)c(I)c2)NC(=O)C(C)(C)NC(=O)[C@@H](NC(C)=O)[C@@H](C)O)CSSC[C@@H](C(=O)N[C@H](C(=O)N[C@H](C(N)=O)[C@@H](C)O)C(C)(C)C)NC(=O)[C@H](CC(N)=O)NC(=O)C(C)(C)NC(=O)[C@H](CCCNC(=N)NC)NC1=O [PSM-0387, Ac-Thr-Aib-Miy-[Cys-Lys(Me)-Arg(Me)-Aib-Asn-Cys]-Tle-Thr-NH2] (Ac-T[Aib][Tyr(3-I)]C[Lys(Me)][Arg(Me)][Aib]NC[Tle]T-NH2; disulfide 4-9)
[1]
  Kd: > 501 nM
[2]
  IC50: > 3160 nM

## CC(=O)N[C@H](C(=O)NC(C)(C)C(=O)N[C@@H](Cc1ccccc1)C(=O)N[C@H]1CSSC[C@@H](C(=O)N[C@H](C(=O)N2CCCC2C(N)=O)C(C)(C)C)NC(=O)[C@H](CC(N)=O)NC(=O)C(C)(C)NC(=O)[C@H](CCCNC(=N)N)NC(=O)[C@H](CCCCN)NC1=O)[C@@H](C)O (stereo partly drawn) [PSM-0388, Ac-Thr-Aib-Phe-[Cys-Lys-Arg-Aib-Asn-Cys]-Tle-Pro-NH2] (Ac-T[Aib]FCKR[Aib]NC[Tle][ξP]-NH2; disulfide 4-9)
[1]
  Kd: < 12.6 nM
[2]
  IC50: < 200 nM

## CCCC[C@H](NC(=O)[C@@H]1CSSC[C@H](NC(=O)[C@H](Cc2ccccc2)NC(=O)[C@H](C)NC(=O)[C@@H](NC(C)=O)[C@@H](C)O)C(=O)N[C@@H](CCCCN)C(=O)N[C@@H](CCCNC(=N)N)C(=O)N[C@@H](C)C(=O)N[C@@H](CC(N)=O)C(=O)N1)C(=O)N[C@H](C(=O)N[C@H](CC(=O)O)C(N)=O)[C@@H](C)O [PSM-0389, Ac-Thr-Ala-Phe-[Cys-Lys-Arg-Ala-Asn-Cys]-Nle-Thr-asp-NH2]
[1]
  Kd: 12.6 to 126 nM
[2]
  IC50: < 200 nM

## CNCCCC[C@@H]1NC(=O)[C@@H](NC(=O)[C@H](Cc2c[nH]c3cc(Cl)ccc23)NC(=O)C(C)(C)NC(=O)[C@@H](NC(=O)CC2CCN(C(=O)CN3CCN(CC(=O)O)CCN(CC(=O)O)CCN(CC(=O)O)CC3)CC2)[C@@H](C)O)CSSC[C@@H](C(=O)N[C@H](C(N)=O)C(C)(C)C)NC(=O)[C@H](CC(N)=O)NC(=O)C(C)(C)NC(=O)[C@H](CCCNC(=N)NC)NC1=O [PSM-0390, DOTA-Cmp-Tle-Aib-6Clw-[Cys-Lys(Me)-Arg(Me)-Aib-Asn-Cys]-Tle-NH2] ({DOTA}-[X1]T[Aib][Trp(6-Cl)]C[Lys(Me)][Arg(Me)][Aib]NC[Tle]-NH2; disulfide 5-10)
[1]
  Kd: < 12.6 nM
[2]
  IC50: < 200 nM

## CC(=O)N[C@H](C(=O)NC(C)(C)C(=O)N[C@@H](Cc1ccccc1)C(=O)N[C@H]1CSSC[C@@H](C(=O)N[C@H](C(=O)N[C@H](C(=O)NCCCCCNC(=O)CN2CCN(CC(=O)O)CCN(CC(=O)O)CCN(CC(=O)O)CC2)[C@@H](C)O)C(C)(C)C)NC(=O)[C@H](CC(N)=O)NC(=O)C(C)(C)NC(=O)[C@H](CCCNC(=N)N)NC(=O)[C@H](CCCCN)NC1=O)[C@@H](C)O [PSM-0391, Ac-Thr-Aib-Phe-[Cys-Lys-Arg-Aib-Asn-Cys]-Tle-Thr-Ape-DOTA] (Ac-T[Aib]FCKR[Aib]NC[Tle]T-{NH(CH2)5NHDOTA}; disulfide 4-9)
[1]
  Kd: < 12.6 nM
[2]
  IC50: < 200 nM
